# Experiments:
# PCT-65 receptor [1] = target: T1, PCT-65 receptor (Rattus norvegicus, UniProt P32305); assay: [3H]-5-HT competition binding to PCT-65 receptor in membranes of transfected COS-7 cells; conditions: competing with [3H]-5-HT (1 nM), COS-7 membranes, 37 °C; geometric mean ± SEM (n=3)
# T1 construct: expressed in transfected cells; host or cells: COS-7 cells (transient, calcium phosphate, pSRα-65)
# Method: (§1) This plasmid construct (pSRα-65) was introduced into COS-7 cells by calcium phosphate-mediated transfection.
# Specifically, transfected cells were scraped into PBS with 5 mM EDTA, spun, polytroned, spun, suspended in 100 mM Tris, 20 mM MgSO4, 1 mM EDTA, pH7.7. 0.5 ml of this solution containing 10-25 μg protein was added to 0.5 ml of a 2 mM ascorbic acid solution containing the ligand and drugs and incubated for 30 min at 37° C. Filtration was performed on GF/C paper (0.1% PEI solution pre-treatment) with a 10 ml rinse.
# PCT-65 receptor [2] = target: T1, PCT-65 receptor; assay: [3H]-LSD competition binding to PCT-65 receptor in membranes of transfected COS-7 cells; conditions: for Ki: competing with [3H]-LSD (1.5-2.2 nM), COS-7 membranes, pH 7.4, 37 °C, 60 min, geometric mean ± SEM (n=3)
# Text: as §1
# PCT-65 receptor [3] = target: T1, PCT-65 receptor; assay: Competition binding to PCT-65 receptor (radioligand not specified); conditions: for affinity for PCT-65 (in words): expressed in mammalian cells (COS-7)
# 5HT1A receptors = conditions: background; cited from earlier work
# [4] = radioligand not given, read-out: Ki (compounds not in Table 1)
# T1 sequence (P32305 45-448): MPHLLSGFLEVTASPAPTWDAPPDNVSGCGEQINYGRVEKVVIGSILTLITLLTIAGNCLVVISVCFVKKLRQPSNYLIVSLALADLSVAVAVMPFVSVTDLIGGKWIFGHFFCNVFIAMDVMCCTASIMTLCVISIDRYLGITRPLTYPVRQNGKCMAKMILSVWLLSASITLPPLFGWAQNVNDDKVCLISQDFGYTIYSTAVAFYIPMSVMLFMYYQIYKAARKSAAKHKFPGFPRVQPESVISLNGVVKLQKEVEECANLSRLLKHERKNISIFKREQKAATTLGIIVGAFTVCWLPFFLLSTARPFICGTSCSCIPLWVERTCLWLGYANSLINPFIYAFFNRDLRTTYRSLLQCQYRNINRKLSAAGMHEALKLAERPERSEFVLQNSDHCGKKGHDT
Structure (SMILES),Ki (PCT-65 receptor [1]),Ki (PCT-65 receptor [2]),further results
c1ccc2c(N3CCNCC3)cccc2c1 [1(1-Napthyl)piperazine],18.4 ± 0.77 nM,33.8 ± 1.68 nM,–
COc1ccccc1N1CCNCC1 [2-MPP],125 ± 8.4 nM,244 ± 16.5 nM,–
NCCc1c[nH]c2ccc(C(N)=O)cc12 [5-Carboxamidotryptamine],0.16 ± 0.05 nM,0.33 ± 0.01 nM,–
"NCCc1c[nH]c2ccc(O)cc12 [5-Hydroxytryptamine, 5-hydroxytryptamine]",–,–,affinity for PCT-65 (in words) (PCT-65 receptor [3]): high affinity
"COc1ccc2[nH]cc(CCN(C)C)c2c1 [5-Methoxy-N,N-dimethytryptamine]",8.26 ± 0.73 nM,20.9 ± 0.86 nM,–
CCCN(CCC)C1CCc2cccc(O)c2C1 (stereo not drawn) [8-OH-DPAT],35 ± 5.62 nM,35.4 ± 5.24 nM,affinity for PCT-65 (in words) (PCT-65 receptor [3]): relatively low affinity
CN(C)CCC=C1c2ccccc2CCc2ccccc21 [Amitriptyline],92.8 ± 15.8 nM,124 ± 13.4 nM,Ki (PCT-65 receptor [3]): < 100 nM; affinity for PCT-65 (in words) (PCT-65 receptor [3]): high affinity
CCn1c(=O)n(C(=O)NC2CC3CCC(C2)N3C)c2ccccc21 (stereo not drawn) [BIMU1],–,–,Ki (PCT-65 receptor [3]; [4]): > 1300 nM
CC(C)n1c(=O)n(C(=O)NC2CC3CCC(C2)N3C)c2ccccc21 (stereo not drawn) [BIMU8],–,–,Ki (PCT-65 receptor [3]): > 1300 nM
COc1cc(N)c(Cl)cc1C(=O)NC1CCN2CCCC1C2 (stereo not drawn) [BRL24294],–,–,Ki (PCT-65 receptor [3]; [4]): > 1300 nM
CN1C2CCCC1CC(NC(=O)c1nn(C)c3ccccc13)C2 (stereo not drawn) [BRL43694],–,–,Ki (PCT-65 receptor [3]; [4]): > 1300 nM
CC(C)C[C@H]1C(=O)N2CCC[C@H]2[C@]2(O)O[C@](NC(=O)[C@@H]3C=C4c5cccc6[nH]c(Br)c(c56)C[C@H]4N(C)C3)(C(C)C)C(=O)N12 [Bromocriptine],48.8 ± 7.9 nM,10.7 ± 0.47 nM,–
CN(C)CCCC1(c2ccc(F)cc2)OCc2cc(C#N)ccc21 (stereo not drawn) [Citalopram],–,–,Ki (PCT-65 receptor [3]): > 1300 nM
CN1C2CCC1CC(NC(=O)n1c(=O)[nH]c3ccccc31)C2 (stereo not drawn) [DAU6215],–,–,Ki (PCT-65 receptor [3]; [4]): > 1300 nM
CNCCCN1c2ccccc2CCc2ccccc21 [Desipramine],–,–,Ki (PCT-65 receptor [3]): > 1300 nM
NCCc1ccc(O)c(O)c1 [Dopamine],–,–,Ki (PCT-65 receptor [3]; [4]): > 1300 nM
CCNC(C)Cc1cccc(C(F)(F)F)c1 (stereo not drawn) [Fenflurmine],–,–,Ki (PCT-65 receptor [3]): > 1300 nM
NCCc1c[nH]cn1 [Histamine],–,–,Ki (PCT-65 receptor [3]; [4]): > 1300 nM
c1ccc2c(c1)OCC(C1=NCCN1)O2 (stereo not drawn) [Idazoxan],–,–,Ki (PCT-65 receptor [3]; [4]): > 1300 nM
O=C(c1ccc(F)cc1)C1CCN(CCn2c(=O)[nH]c3ccccc3c2=O)CC1 [Ketanserin],265 ± 32.1 nM,207 ± 19.6 nM,–
CCN(CC)C(=O)[C@@H]1C=C2c3cccc4[nH]cc(c34)C[C@H]2N(C)C1 [LSD],–,–,affinity for PCT-65 (in words) (PCT-65 receptor [3]): relatively high affinity

Structure (SMILES),Ki (PCT-65 receptor [1]),Ki (PCT-65 receptor [2]),further results
CN1C2CCC1CC(NC(=O)c1nn(C)c3ccccc13)C2 (stereo not drawn) [LY-278584],–,–,Ki (PCT-65 receptor [3]): > 1300 nM
CN1CCN(C2=Nc3ccccc3Oc3ccc(Cl)cc32)CC1 [Loxapine],133 ± 36.1 nM,172 ± 7.8 nM,affinity for PCT-65 (in words) (PCT-65 receptor [3]): low affinity; affinity for PCT-65 (in words) (PCT-65 receptor [3]; listed as loxipine): high affinity
CN1[C@@H]2CC[C@H]1C[C@@H](OC(=O)c1cc(Cl)cc(Cl)c1)C2 [MDL7222],–,–,Ki (PCT-65 receptor [3]; [4]): > 1300 nM
COc1ccc2[nH]cc(CCNC(C)=O)c2c1 [Melotonin],–,–,Ki (PCT-65 receptor [3]): > 1300 nM
CN1C[C@@H](NS(=O)(=O)N(C)C)C[C@@H]2c3cccc4c3c(cn4C)C[C@H]21 [Mesulergine],21.1 ± 2.19 nM,7.13 ± 0.39 nM,affinity for PCT-65 (in words) (PCT-65 receptor [3]): relatively high affinity
CN1C[C@H](CNC(=O)OCc2ccccc2)C[C@@H]2c3cccc4c3c(cn4C)C[C@H]21 [Metergoline],6.21 ± 1 nM,2.04 ± 0.15 nM,potency in competition with [3H]-LSD compared with [3H]-5-HT (in words) (PCT-65 receptor [2]; relative to competition with [3H]-5-HT): somewhat greater potency
CC[C@@H](CO)NC(=O)[C@@H]1C=C2c3cccc4c3c(cn4C)C[C@H]2N(C)C1 [Methysergide],13.4 ± 0.8 nM,12.6 ± 0.84 nM,–
COc1ccccc1N1CCN(CCCCN2C(=O)c3ccccc3C2=O)CC1 [NAN-190],–,–,Ki (PCT-65 receptor [3]; [4]): > 1300 nM
NCC(O)c1ccc(O)cc1 (stereo not drawn) [Octopamine],–,–,Ki (PCT-65 receptor [3]): > 1300 nM
CCCN1C[C@H](CSC)C[C@@H]2c3cccc4[nH]cc(c34)C[C@H]21 [Pergolide],1.01 ± 0.03 nM,4.78 ± 0.18 nM,affinity for PCT-65 (in words) (PCT-65 receptor [3]): relatively high affinity
CC(C)NCC(O)COc1cccc2[nH]ccc12 (stereo not drawn) [Pindolol],–,–,Ki (PCT-65 receptor [3]): > 1300 nM
c1ccc2nc(N3CCNCC3)ccc2c1 [Quipazine],–,–,Ki (PCT-65 receptor [3]; [4]): > 1300 nM
Cc1nc2sccn2c(=O)c1CCN1CCC(=C(c2ccc(F)cc2)c2ccc(F)cc2)CC1 [Ritanserin],15 ± 3.4 nM,21.7 ± 2.1 nM,–
CNS(=O)(=O)Cc1ccc2[nH]cc(CCN(C)C)c2c1 [Sumatriptan],251 ± 36.1 nM,–,–
FC(F)(F)c1cccc(N2CCNCC2)c1 [TFMPP],236 ± 5.5 nM,533 ± 33 nM,–
NCCc1c[nH]c2ccccc12 [Tryptamine],16.4 ± 1.01 nM,32.9 ± 0.76 nM,–
COc1cc(N)c(Cl)cc1C(=O)NC1CN2CCC1CC2 (stereo not drawn) [Zacopride],–,–,Ki (PCT-65 receptor [3]; [4]): > 1300 nM
CC1(C)CC(=O)N(CCCCN2CCN(c3ncccn3)CC2)C(=O)C1 [gepirone],–,–,affinity for 5HT1A receptors in the brain (in words) (5HT1A receptors): high affinities
O=C1c2ccccc2S(=O)(=O)N1CCCCN1CCN(c2ncccn2)CC1 [ipsapirone],–,–,affinity for 5HT1A receptors in the brain (in words) (5HT1A receptors): high affinities
Clc1cccc(N2CCNCC2)c1 [mCPP],256 ± 9.9 nM,352 ± 54.9 nM,–
